Test results as given in patent US20050107353A1, “Methods of treating lower urinary tract disorders using losigamone” (Dynogen Pharmaceuticals, Inc., priority 2003, published 2005).
Entries after “also recorded” stand apart in the source; their conditions may differ.

Columns and labels:
[1] = tested on: activity dependent sodium currents in bladder DRG neurons; test: Use-dependent effect on sodium currents in bladder DRG neurons, slow versus fast stimulation; assay type: cell-based, rat; conditions: 100 μM, steps from −50 to 0 mV, three neurons
Procedure: Labeling of bladder afferent neurons: Adult female Sprague-Dawley rats (150-300 g) were deeply anesthetized with pentobarbital anesthesia and placed on isoflurane maintenance anesthesia. A ventral midline incision was made through the abdominal skin and musculature, exposing the urinary bladder. Five injections of the fluorescent dye Di-I (5 μl each of 25 mg/ml Di-I in DMSO) or Fast Blue (4% w/v) were made into the bladder smooth muscle wall to label primary afferent fibers innervating the bladder. The area was rinsed with sterile saline to eliminate nonspecific spread of dye, and the incision was closed. Rats recovered for 5-12 days to allow for transport of fluorescent dye from distal terminals to the cell somata of dorsal root ganglion (DRG) neurons. Labeled neurons were identified in vitro using fluorescence optics. […]
Sodium currents were recorded from DRG neurons using standard electrophysiologic protocols. […] Currents were recorded using a patch-clamp amplifier and digitized at 3-10 kHz for acquisition. Neuronal input resistance and membrane capacitance were determined from the amplitude and kinetics of the current response to a voltage pulse from a holding potential of −50 mV. […] For all cell types, baseline responses were recorded for a minimum of 10 min to ensure that the kinetics of the response was stable. […]

[2] = target: T1, TTX-R sodium currents in bladder afferent neurons (Rattus norvegicus, UniProt Q62968); test: Bladder sensory neuron sodium channel current model: whole cell patch-clamp of TTX-R sodium currents; assay type: cell-based
T1 construct: Whole cell patch-clamp recordings were obtained from dye-labeled DRG neurons; endogenous in cells; host or cells: primary dissociated L6/S1 dorsal root ganglion neurons of Sprague-Dawley rats, dye-labelled bladder afferents
T1 sequence (Q62968 whole entry): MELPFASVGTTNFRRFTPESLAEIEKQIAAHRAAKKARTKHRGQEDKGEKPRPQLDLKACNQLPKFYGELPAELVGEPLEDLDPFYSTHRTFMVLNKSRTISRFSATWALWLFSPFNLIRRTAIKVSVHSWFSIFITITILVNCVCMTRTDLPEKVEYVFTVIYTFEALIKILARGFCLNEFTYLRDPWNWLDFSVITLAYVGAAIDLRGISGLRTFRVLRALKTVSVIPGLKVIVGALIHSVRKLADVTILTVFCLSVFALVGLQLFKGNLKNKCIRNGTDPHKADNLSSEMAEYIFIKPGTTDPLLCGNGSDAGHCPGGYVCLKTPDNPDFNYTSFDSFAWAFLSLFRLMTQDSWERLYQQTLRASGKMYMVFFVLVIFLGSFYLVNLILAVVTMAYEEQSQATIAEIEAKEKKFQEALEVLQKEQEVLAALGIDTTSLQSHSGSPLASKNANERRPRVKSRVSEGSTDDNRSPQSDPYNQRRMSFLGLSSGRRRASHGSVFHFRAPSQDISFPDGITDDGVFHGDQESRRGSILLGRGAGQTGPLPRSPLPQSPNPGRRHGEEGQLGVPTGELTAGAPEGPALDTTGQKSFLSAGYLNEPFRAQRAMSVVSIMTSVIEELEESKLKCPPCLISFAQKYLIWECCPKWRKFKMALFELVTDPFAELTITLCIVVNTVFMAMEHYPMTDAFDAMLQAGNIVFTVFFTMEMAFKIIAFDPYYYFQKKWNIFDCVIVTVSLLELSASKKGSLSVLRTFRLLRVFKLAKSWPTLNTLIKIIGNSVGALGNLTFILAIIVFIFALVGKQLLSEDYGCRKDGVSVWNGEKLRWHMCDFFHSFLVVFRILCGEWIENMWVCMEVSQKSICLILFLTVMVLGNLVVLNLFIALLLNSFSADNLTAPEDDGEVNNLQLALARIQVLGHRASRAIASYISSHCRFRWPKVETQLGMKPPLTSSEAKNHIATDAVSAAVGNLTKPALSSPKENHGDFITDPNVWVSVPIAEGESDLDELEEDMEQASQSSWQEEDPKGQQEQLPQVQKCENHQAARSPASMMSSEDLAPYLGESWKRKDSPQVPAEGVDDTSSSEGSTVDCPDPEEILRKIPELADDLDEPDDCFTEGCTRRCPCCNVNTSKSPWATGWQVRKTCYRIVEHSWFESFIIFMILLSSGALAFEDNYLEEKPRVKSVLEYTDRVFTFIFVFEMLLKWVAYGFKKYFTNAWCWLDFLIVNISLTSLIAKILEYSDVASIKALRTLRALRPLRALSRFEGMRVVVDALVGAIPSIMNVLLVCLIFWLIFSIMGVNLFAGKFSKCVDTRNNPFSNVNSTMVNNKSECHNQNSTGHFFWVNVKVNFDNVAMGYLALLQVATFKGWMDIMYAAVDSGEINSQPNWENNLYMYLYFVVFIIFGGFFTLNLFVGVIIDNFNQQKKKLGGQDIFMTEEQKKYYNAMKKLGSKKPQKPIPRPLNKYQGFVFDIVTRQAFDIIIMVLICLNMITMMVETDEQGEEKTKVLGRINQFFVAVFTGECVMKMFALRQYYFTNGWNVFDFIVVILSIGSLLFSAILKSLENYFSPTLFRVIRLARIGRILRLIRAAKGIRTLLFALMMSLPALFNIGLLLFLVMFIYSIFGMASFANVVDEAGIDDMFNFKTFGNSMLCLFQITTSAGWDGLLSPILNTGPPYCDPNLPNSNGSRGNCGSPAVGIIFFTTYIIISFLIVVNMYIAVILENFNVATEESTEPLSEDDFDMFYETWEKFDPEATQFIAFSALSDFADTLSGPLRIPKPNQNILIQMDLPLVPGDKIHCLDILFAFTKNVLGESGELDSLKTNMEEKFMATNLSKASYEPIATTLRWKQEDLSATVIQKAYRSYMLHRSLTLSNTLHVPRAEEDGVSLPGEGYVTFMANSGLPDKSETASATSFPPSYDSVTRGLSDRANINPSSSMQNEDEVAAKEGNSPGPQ
Procedure: Labeling of bladder afferent neurons: Adult female Sprague-Dawley rats (150-300 g) were deeply anesthetized with pentobarbital anesthesia and placed on isoflurane maintenance anesthesia. A ventral midline incision was made through the abdominal skin and musculature, exposing the urinary bladder. Five injections of the fluorescent dye Di-I (5 μl each of 25 mg/ml Di-I in DMSO) or Fast Blue (4% w/v) were made into the bladder smooth muscle wall to label primary afferent fibers innervating the bladder. The area was rinsed with sterile saline to eliminate nonspecific spread of dye, and the incision was closed. Rats recovered for 5-12 days to allow for transport of fluorescent dye from distal terminals to the cell somata of dorsal root ganglion (DRG) neurons. Labeled neurons were identified in vitro using fluorescence optics.
Neuronal cultures: Di-I injected rats were euthanized with pentobarbital anesthesia. Lumbar (L6) and sacral (S1) DRG were dissected from the vertebral column and placed in Dulbecco's modified Eagles medium (DMEM) containing 0.3% collagenase B for 60 min at 37° C. The cell solution was exchanged for a 0.25% trypsin in calcium/magnesium-free Dulbecco's phosphate-buffered saline solution, and further digested for 30 min at 37° C. Following a wash in fresh DMEM, ganglia were dissociated by a series of triturations using fire-polished Pasteur pipettes. DRG cells were plated on polylysine-treated glass coverslips. Cells were plated at a density of 0.5 DRG per coverslip in 1 ml DMEM supplemented with 10% FBS, NGF, and 100 U/ml penicillin/streptomycin. All experimental procedures involving rats were conducted under a protocol approved by an Institutional Animal Care and Use Committee. Small variations in the concentrations of reagents, incubation times, etc. may occur and are expected to give similar results.
In most experiments, neurons were incubated in culture medium containing the FITC-labeled lectin BSI-B4 (IB4, […]) at 37° C. for 5 min before recording. The coverslip was washed with extracellular recording solution for 1 min before being placed in a recording chamber mounted on the stage of an inverted microscope equipped with fluorescence optics.
Electrophysiology: Electrophysiologic evaluation of neurons occurred within 4-48 h of plating. Whole cell patch-clamp recordings were obtained from dye-labeled DRG neurons. Recordings were obtained in an extracellular recording solution (pH 7.4, 295-320 mosM) consisting of (in mM) 140 NaCl, 3 KCl, 1 CaCl2, 1 MgCl2, 0.1 CdCl2, 10 HEPES, and 10 glucose. Patch-clamp electrodes were pulled from borosilicate glass and fire polished to 2-6 MOhm tip resistance. The internal pipette recording solution (pH 7.3, 290-300 mosM) consisted of (in mM) 140 CsCl, 10 NaCl, 1 EGTA, and 10 HEPES. Tetrodotoxin (TTX, 0.3 uM) was included in the extracellular solution to block TTX-sensitive sodium currents. Variations in the concentrations and types of reagents used for solutions may occur and are expected to give similar results.
Sodium currents were recorded from DRG neurons using standard electrophysiologic protocols. Neurons were typically voltage-clamped at −50 mV. Currents were recorded using a patch-clamp amplifier and digitized at 3-10 kHz for acquisition. Neuronal input resistance and membrane capacitance were determined from the amplitude and kinetics of the current response to a voltage pulse from a holding potential of −50 mV. Series resistance was compensated 75-95% for all recordings. Leak currents were cancelled online using a standard P/4 protocol. Depolarizing steps from −90, −70, or −50 mV to 0 mV were delivered every 5 or 30 sec during drug application to determine the effects of drugs on sodium currents. For all cell types, baseline responses were recorded for a minimum of 10 min to ensure that the kinetics of the response was stable. A wash out or recovery period usually followed the drug application period. […]

[3] = tested on: acetic acid-induced reduction of bladder capacity; test: Dilute acetic acid model: bladder capacity by filling cystometry during continuous intravesical acetic acid irritation; assay type: in vivo, rat; conditions: intraduodenal; for post-test: reversal of bladder capacity reduction: rats; for effect on bladder capacity (reversal of acetic acid-induced reduction): increasing doses, rats during continuous irritation
Text: The objective of the current study was to determine the effect of TTX-R sodium channel modulators or use dependent sodium channel modulators on the ability to reverse the reduction in bladder capacity seen following continuous infusion of dilute acetic acid, a commonly used model of lower urinary tract disorders including overactive bladder.
Animal Preparation: Female rats (250-275 g BW) were anesthetized with urethane (1.2 g/kg) and a saline-filled catheter (PE-50) was inserted into either the jugular vein for intravenous (i.v.; saline vehicle) or the proximal duodenum for intraduodenal (i.d.; distilled water or 10% Tween 80 in saline as vehicle) drug administration. Via a midline lower abdominal incision, a flared-tipped PE 50 catheter was inserted into the bladder dome for bladder filling and pressure recording and secured by ligation. The abdominal cavity was moistened with saline and closed by covering with a thin plastic sheet in order to maintain access to the bladder for emptying purposes. Fine silver or stainless steel wire electrodes were inserted into the external urethral sphincter (EUS) percutaneously for electromyography (EMG).
Experimental Design: Saline was continuously infused at a rate of 0.055 ml/min via the bladder filling catheter for ≧60 minutes to obtain a baseline of lower urinary tract activity (continuous cystometry; CMG). Following the control period, a 0.25% acetic acid solution in saline was infused into the bladder at the same flow rate to induce bladder irritation. Following 30 minutes of AA infusion, 3 vehicle injections were made at 20 minute intervals to determine vehicle effects, if any. Subsequently, increasing doses (2-5) of Na^+ channel blocking compound were administered intravenously or intraduodenaly at half-log order increments at 30 or 60 minute intervals in order to construct a cumulative dose-response relationship. At the end of the control saline cystometry period, the third vehicle, and 20-50 minutes following each subsequent treatment, the infusion pump was stopped, the bladder was emptied by fluid withdrawal via the infusion catheter and a single filling cystometrogram was performed at the same flow rate in order to determine changes in bladder capacity caused by the irritation protocol and subsequent intravenous or intraduodenal drug administration.
Data were analyzed by non-parametric ANOVA for repeated measures (Friedman Test) with Dunn's Multiple Comparison test. All comparisons were made from the last vehicle measurement (AA/Veh 3) or the lowest dose of drug. P<0.050 was considered significant.

Compound | peak sodium current amplitude, fast (17 Hz) versus slow (0.2 Hz) stimulation [1] | effect on inward TTX-R sodium current ([2]; 100 μM bath application, labeled bladder afferent neuron) | concentration-response effect on TTX-R sodium current amplitude ([2]; bath application, cumulative concentrations, bladder afferent neurons) | post-test: reversal of bladder capacity reduction ([3]; 30 mg/kg dose) | post-test: reversal of bladder capacity reduction ([3]; 100 mg/kg dose) | effect on bladder capacity (reversal of acetic acid-induced reduction) [3] | effect on bladder capacity (reversal of acetic acid-induced reduction) ([3]; listed as sipatrigine)
Nc1nnc(-c2cccc(Cl)c2Cl)c(N)n1 [Lamotrigine, 6-(2,3-Dichlorophenyl)-1,2,4-triazine-3,5-diamine] | decreased to a greater extent under fast stimulation conditions | – | – | – | – | – | –
CN1CCN(c2ncc(-c3cc(Cl)cc(Cl)c3Cl)c(N)n2)CC1 [Sipatrigine, 4-Amino-2-(4-methylpiperazin-1-yl)-5-(2,3,5-trichlorophenyl)pyrimidine] | – | blocked the current | concentration-dependent reduction in current amplitude | statistically significant reversal of bladder capacity reduction | statistically significant reversal of bladder capacity reduction | capable of partially reversing the reduction in bladder capacity caused by acetic acid in a dose-dependent fashion; also recorded: dose-dependent and statistically significant reversal | dose-dependent, statistically significant increases in bladder capacity
